From BindingDB's records for doi:10.1021/jm950409c (University of Bari Aldo Moro, 1996) come the findings set out here.

A short description of experiment [1]: Inhibition of [3H]DTG binding to sigma receptor from guinea pig brain cortex membrane.
The target in experiment [2] is Sigma non-opioid intracellular receptor 1 (Cavia porcellus) (UniProt Q60492). Briefly: Inhibitory activity against sigma receptor isolated from guinea pig brain cortex membrane using [3H]DTG as radioligand.
A short description of experiment [3]: Inhibitory activity against 5-hydroxytryptamine 1A receptor isolated from rat hippocampus membranes membrane using [3H]5-HT as radioligand in the presence of 10e-6 M ketanserin as 5-HT2 blocker.
The nature of experiment [4]: Inhibitory activity against sigma receptor isolated from guinea pig brain cortex membrane using PCP as radioligand at a concentration of 10e-5 M.

Chain of Sigma non-opioid intracellular receptor 1 (Cavia porcellus) (Q60492 whole entry, looked up): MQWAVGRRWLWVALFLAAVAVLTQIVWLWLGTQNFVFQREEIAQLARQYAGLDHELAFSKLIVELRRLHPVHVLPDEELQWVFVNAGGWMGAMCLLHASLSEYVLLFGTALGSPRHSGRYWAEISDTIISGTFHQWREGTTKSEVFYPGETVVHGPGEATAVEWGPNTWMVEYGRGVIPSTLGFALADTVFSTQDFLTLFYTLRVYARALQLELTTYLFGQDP

What is called Ki is the equilibrium dissociation constant of an inhibitor or competing ligand from its target. The compound `COc1cccc2c1CCCC2CCCN1CCNCC1` (stereo unspecified) [1-(3-(5-methoxy-1,2,3,4-tetrahydronaphthalen-1-yl)propyl)piperazine] returned a Ki in experiment [1] of over 0.877 µM.

`COc1cccc2c1CCC=C2CCCN1CCN(Cc2ccccc2)CC1` [1-Benzyl-4-[3-(5-methoxy-3,4-dihydro-naphthalen-1-yl)-propyl]-piperazine]: the results for the inhibition constant (Ki) in experiment [2] and in experiment [3] were 0.139 µM and over 1.43 µM, respectively.

The compound `COc1ccc2c(c1)C(CCCN1CCN(C3=NCCCC3)CC1)CCC2` (stereo unspecified) [1-[3-(7-Methoxy-1,2,3,4-tetrahydro-naphthalen-1-yl)-propyl]-4-(3,4,5,6-tetrahydro-pyridin-2-yl)-piperazine] gave a Ki in experiment [1] of 0.029 µM.

Turning to `COc1cccc2c1CCCC2CCCNCCNc1ccccc1` (stereo unspecified) [N-[3-(5-Methoxy-1,2,3,4-tetrahydro-naphthalen-1-yl)-propyl]-N'-phenyl-ethane-1,2-diamine], the Ki amounted to 0.265 µM in experiment [1] and 2.13 µM in experiment [4].
